Results taken from patent publication US10000471B2, “Pyrazole P38 map kinase inhibitors” (Respivert Limited, priority 2010, dated 2018).

Assays:
[1] = biological target: T1, p38 MAPKα isoform (MAPK14) (Homo sapiens, UniProt Q16539); experiment: Enzyme inhibition assay (FRET, Z-LYTE), p38 MAPKα via MAPKAP-K2 activation; type: biochemical; details: read-out: Enzyme Inhibition IC50 p38α
T1 construct: purchased Invitrogen
In short: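 Recombinant p38 MAPKα was preincubated with compound for 2 h at RT. Its activity was measured indirectly through activation/phosphorylation of downstream MAPKAP-K2, with a Z-LYTE FRET peptide read-out (coumarin/fluorescein ratio) after a 1 h development step. IC50 came from concentration-response curves of percent inhibition versus an uninhibited control.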

p38 MAPKγ (MAPK12) = biological target: T2, p38 MAPKγ (MAPK12) (Homo sapiens, UniProt P53778); experiment: Enzyme inhibition assay (FRET, Z-LYTE), p38 MAPKγ; type: biochemical; details: read-out: Enzyme Inhibition IC50 p38γ
T2 construct: purchased Invitrogen
T2 sequence (P53778 1-367): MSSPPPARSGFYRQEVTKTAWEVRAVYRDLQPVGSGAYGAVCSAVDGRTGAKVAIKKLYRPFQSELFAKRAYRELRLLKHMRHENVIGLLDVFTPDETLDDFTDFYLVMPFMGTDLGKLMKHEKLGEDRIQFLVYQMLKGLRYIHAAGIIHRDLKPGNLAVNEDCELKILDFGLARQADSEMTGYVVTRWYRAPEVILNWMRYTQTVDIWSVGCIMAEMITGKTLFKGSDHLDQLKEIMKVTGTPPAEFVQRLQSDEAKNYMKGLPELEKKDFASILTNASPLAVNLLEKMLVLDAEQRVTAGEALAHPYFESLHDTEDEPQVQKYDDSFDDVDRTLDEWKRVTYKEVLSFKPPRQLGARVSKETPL
In short: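 Recombinant phosphorylated p38 MAPKγ preincubated 2 h at RT with compound in HEPES buffer, then 2 μM FRET peptide and 100 μM ATP added for 1 h; protease development 1 h. Coumarin/fluorescein emission ratio gave phosphorylation; IC50 from concentration-response versus uninhibited control.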

[2] = tested on: TNFα release in THP-1 cells; experiment: LPS-induced TNFα release in THP-1 cells; type: cell-based, human; details: Homo sapiens
In short: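 Human monocytic THP-1 cells stimulated with 3 μg/mL E. coli LPS for 4 hr; supernatant TNFα measured by sandwich ELISA. Inhibition at each concentration versus vehicle control, IC50 from concentration-response curve.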

[3] = tested on: TNFα release in d-U937 cells; experiment: LPS-induced TNFα release in d-U937 cells; type: cell-based, human; details: Homo sapiens, dU937, relative to 10 μg/mL BIRB796, read-out: LPS/TNFα REC50 d-U937
In short: (§1)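 PMA-differentiated (100 ng/ml, 48–72 hr) U937 macrophage-type cells pre-incubated 2 hr with compound, then stimulated 4 hr with 0.1 μg/mL E. coli O111:B4 LPS; supernatant TNFα and IL-8 measured by sandwich ELISA. TNFα inhibition expressed relative to 10 μg/mL BIRB796, giving REC50; IL-8 inhibition versus vehicle, giving IC50.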

[4] = tested on: IL-8 release in d-U937 cells; experiment: LPS-induced IL-8 release in d-U937 cells; type: cell-based, human; details: Homo sapiens, dU937
In short: as §1

[5] = tested on: ICAM-1 induction in BEAS2B cells; experiment: Poly I:C-induced ICAM-1 induction in BEAS2B cells; type: cell-based, human; details: Homo sapiens, BEAS-2B, read-out: PolyIC/ICAM1 IC50 BEAS2B
In short: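 Human bronchial epithelial BEAS2B cells were pre-incubated with compound for 2 hr, then transfected with 1 μg/mL poly I:C. After 18 hr, surface ICAM-1 was measured by cell-based ELISA (OD450-655) and normalized to crystal violet cell counts (OD595). IC50 came from inhibition versus vehicle across the concentration-response curve.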

[6] = tested on: Differentiated U937 cells; experiment: Cell viability MTT assay; type: cell-based, human; details: negative = apparent increase in viability; for MTT Assay (Viability) 4 h d-U937, percentage loss of cell viability: 4 hr in 5% FCS; for MTT Assay (Viability) 24 h d-U937, percentage loss of cell viability: 24 h in 10% FCS
In short: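 Differentiated U937 cells pre-incubated with compound either 4 hr in 5% FCS or 24 h in 10% FCS, then 1 hr MTT. Formazan dissolved in DMSO, absorbance at 550 nm. Percentage viability loss relative to 0.5% DMSO vehicle; apparent increases appear as negative percentages.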

T1 sequence (Q16539 whole entry, canonical isoform): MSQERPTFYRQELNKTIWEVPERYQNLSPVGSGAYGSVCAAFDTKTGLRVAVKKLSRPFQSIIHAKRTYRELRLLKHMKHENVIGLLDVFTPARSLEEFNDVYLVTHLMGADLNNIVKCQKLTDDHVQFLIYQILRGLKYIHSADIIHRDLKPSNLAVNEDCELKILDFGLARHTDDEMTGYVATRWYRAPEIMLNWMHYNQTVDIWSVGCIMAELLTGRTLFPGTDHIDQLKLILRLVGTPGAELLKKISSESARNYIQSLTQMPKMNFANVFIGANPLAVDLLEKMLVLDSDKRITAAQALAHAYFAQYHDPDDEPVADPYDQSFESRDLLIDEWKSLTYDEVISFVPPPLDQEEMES

## COCC(=O)Nc1cc(Oc2ccc(NC(=O)Nc3cc(C(C)(C)C)nn3-c3ccc(C)cc3)cc2C(F)(F)F)ccn1 [Example 30, N-(4-(4-(3-(3-tert-butyl-1-p-tolyl-1H-pyrazol-5-yl)ureido)-2-trifluoromethylphenoxy)pyridin-2-yl)-2-methoxyacetamide]
[1]
  IC50: 164 nM
p38 MAPKγ (MAPK12)
  IC50: 152 nM
[2]
  IC50: 1.3 nM
[3]
  EC50: 2.5 nM
[4]
  IC50: 6.5 nM
[5]
  IC50: 6.9 nM
[6]
  MTT Assay (Viability) 4 h d-U937, percentage loss of cell viability: 3.3%
  MTT Assay (Viability) 24 h d-U937, percentage loss of cell viability: 61.6%

## COCC(=O)Nc1cc(Oc2ccc(NC(=O)Nc3cc(C(C)(C)C)nn3-c3ccc(C)cc3)cc2S(C)(=O)=O)ccn1 [Example 31, N-(4-(4-(3-(3-tert-butyl-1-p-tolyl-1H-pyrazol-5-yl)ureido)-2-methylsulfonylphenoxy)pyridin-2-yl)-2-methoxyacetamide]
[1]
  IC50: 154 nM
p38 MAPKγ (MAPK12)
  IC50: 290 nM
[2]
  IC50: 143 nM
[3]
  EC50: 176 nM
[4]
  IC50: 264 nM
[5]
  IC50: 108 nM
[6]
  MTT Assay (Viability) 4 h d-U937, percentage loss of cell viability: 1.1%
  MTT Assay (Viability) 24 h d-U937, percentage loss of cell viability: 49.3%

## COCC(=O)Nc1cc(Oc2ccc(NC(=O)Nc3cc(C(C)(C)C)nn3-c3ccc(C)cc3)c(Br)c2)ccn1 [Example 32, N-(4-(3-bromo-4-(3-(3-tert-butyl-1-p-tolyl-1H-pyrazol-5-yl)ureido)phenoxy)pyridin-2-yl)-2-methoxyacetamide]
[1]
  IC50: 42.9 nM
p38 MAPKγ (MAPK12)
  IC50: 148 nM
[2]
  IC50: 1.3 nM
[3]
  EC50: 0.6 nM
[4]
  IC50: 29.1 nM
[5]
  IC50: 6.5 nM
[6]
  MTT Assay (Viability) 4 h d-U937, percentage loss of cell viability: 17.2%
  MTT Assay (Viability) 24 h d-U937, percentage loss of cell viability: 65.3%

## COCC(=O)Nc1cc(Oc2ccc(NC(=O)Nc3cc(C(C)(C)C)nn3-c3ccc(C)cc3)cc2Br)ccn1 [Example 33, N-(4-(2-bromo-4-(3-(3-tert-butyl-1-p-tolyl-1H-pyrazol-5-yl)ureido)phenoxy)pyridin-2-yl)-2-methoxyacetamide]
[1]
  IC50: 25.3 nM
p38 MAPKγ (MAPK12)
  IC50: 59.7 nM
[2]
  IC50: 1.5 nM
[3]
  EC50: 6.4 nM
[4]
  IC50: 4.8 nM
[5]
  IC50: 3 nM
[6]
  MTT Assay (Viability) 4 h d-U937, percentage loss of cell viability: −12.6%
  MTT Assay (Viability) 24 h d-U937, percentage loss of cell viability: 68.9%

## COCC(=O)Nc1cc(Oc2ccc(NC(=O)Nc3cc(C(C)(C)C)nn3-c3ccc(C)cc3)c(F)c2F)ccn1 [Example 34, N-(4-(4-(3-(3-tert-butyl-1-p-tolyl-1H-pyrazol-5-yl)ureido)-2,3-difluorophenoxy)pyridin-2-yl)-2-methoxyacetamide]
[1]
  IC50: 134 nM
p38 MAPKγ (MAPK12)
  IC50: 24 nM
[2]
  IC50: 0.4 nM
[3]
  EC50: 0.3 nM
[4]
  IC50: 2.2 nM
[5]
  IC50: 2.5 nM
[6]
  MTT Assay (Viability) 4 h d-U937, percentage loss of cell viability: 2.4%
  MTT Assay (Viability) 24 h d-U937, percentage loss of cell viability: 82.1%

## COCC(=O)Nc1cc(Oc2ccc(NC(=O)Nc3cc(C(C)(C)C)nn3-c3ccc(C)cc3)c(Cl)c2F)ccn1 [Example 35, N-(4-(4-(3-(3-tert-butyl-1-p-tolyl-1H-pyrazol-5-yl)ureido)-3-chloro-2-fluorophenoxy)pyridin-2-yl)-2-methoxyacetamide]
[1]
  IC50: 24.7 nM
p38 MAPKγ (MAPK12)
  IC50: 134 nM
[2]
  IC50: 0.6 nM
[3]
  EC50: 0.5 nM
[4]
  IC50: 2.8 nM
[5]
  IC50: 1.5 nM
[6]
  MTT Assay (Viability) 4 h d-U937, percentage loss of cell viability: −0.2%
  MTT Assay (Viability) 24 h d-U937, percentage loss of cell viability: 73.1%

## COCC(=O)Nc1cc(Oc2ccc(NC(=O)Nc3cc(C(C)(C)C)nn3-c3ccc(C)cc3)c(Cl)c2Cl)ccn1 [Example 36, N-(4-(4-(3-(3-tert-butyl-1-p-tolyl-1H-pyrazol-5-yl)ureido)-2,3-dichlorophenoxy)pyridin-2-yl)-2-methoxyacetamide]
[1]
  IC50: 18.4 nM
p38 MAPKγ (MAPK12)
  IC50: 380 nM
[2]
  IC50: 2.2 nM
[3]
  EC50: 0.7 nM
[4]
  IC50: 3.4 nM
[5]
  IC50: 1.9 nM
[6]
  MTT Assay (Viability) 4 h d-U937, percentage loss of cell viability: −11.2%
  MTT Assay (Viability) 24 h d-U937, percentage loss of cell viability: 68.8%

## COCC(=O)Nc1cc(Oc2ccc(NC(=O)Nc3cc(C(C)(C)C)nn3-c3ccc(C)cc3)c(Cl)c2C(F)(F)F)ccn1 [Example 37, N-(4-(4-(3-(3-tert-butyl-1-p-tolyl-1H-pyrazol-5-yl)ureido)-3-chloro-2-trifluoromethylphenoxy)pyridin-2-yl)-2-methoxyacetamide]
[1]
  IC50: 102 nM
p38 MAPKγ (MAPK12)
  IC50: 159 nM
[2]
  IC50: 1.8 nM
[3]
  EC50: 1.9 nM
[4]
  IC50: 6.9 nM
[5]
  IC50: 4 nM
[6]
  MTT Assay (Viability) 4 h d-U937, percentage loss of cell viability: −0.4%
  MTT Assay (Viability) 24 h d-U937, percentage loss of cell viability: 24.7%

## COCC(=O)Nc1cc(Oc2cc(Cl)c(NC(=O)Nc3cc(C(C)(C)C)nn3-c3ccc(C)cc3)cc2F)ccn1 [Example 38, N-(4-(4-(3-(3-tert-butyl-1-p-tolyl-1H-pyrazol-5-yl)ureido)-5-chloro-2-fluorophenoxy)pyridin-2-yl)-2-methoxyacetamide]
[1]
  IC50: 63 nM
p38 MAPKγ (MAPK12)
  IC50: 35.9 nM
[2]
  IC50: 3.7 nM
[3]
  EC50: 54.1 nM
[4]
  IC50: 160 nM
[5]
  IC50: 24.8 nM
[6]
  MTT Assay (Viability) 4 h d-U937, percentage loss of cell viability: 0.6%
  MTT Assay (Viability) 24 h d-U937, percentage loss of cell viability: 64.1%

## COCC(=O)Nc1cc(Oc2cc(Cl)c(NC(=O)Nc3cc(C(C)(C)C)nn3-c3ccc(C)cc3)cc2Cl)ccn1 [Example 39, N-(4-(4-(3-(3-tert-butyl-1-p-tolyl-1H-pyrazol-5-yl)ureido)-2,5-dichlorophenoxy)pyridin-2-yl)-2-methoxyacetamide]
[1]
  IC50: 11.5 nM
p38 MAPKγ (MAPK12)
  IC50: 3470 nM
[2]
  IC50: 9.6 nM
[3]
  EC50: 27 nM
[4]
  IC50: 108 nM
[5]
  IC50: 109 nM
[6]
  MTT Assay (Viability) 4 h d-U937, percentage loss of cell viability: 6.5%
  MTT Assay (Viability) 24 h d-U937, percentage loss of cell viability: −3.0%

## COCC(=O)Nc1cc(Oc2ccc(NC(=O)Nc3cc(C(C)(C)C)nn3-c3ccc(C)cc3)c3ncccc23)ccn1 [Example 40, N-(4-(8-(3-(3-tert-butyl-1-p-tolyl-1H-pyrazol-5-yl)ureido)quinolin-5-yloxy)pyridin-2-yl)-2-methoxyacetamide]
[1]
  IC50: 0.3 nM
p38 MAPKγ (MAPK12)
  IC50: 189 nM
[2]
  IC50: 0.7 nM
[3]
  EC50: 1.6 nM
[4]
  IC50: 2 nM
[5]
  IC50: 16.6 nM
[6]
  MTT Assay (Viability) 4 h d-U937, percentage loss of cell viability: −10.7%
  MTT Assay (Viability) 24 h d-U937, percentage loss of cell viability: 28.4%

## COCC(=O)Nc1cc(Oc2ccc(NC(=O)Nc3cc(C(C)(C)C)nn3-c3ccc(O)cc3)c(Cl)c2Cl)ccn1 [Example 41, N-(4-(4-(3-(3-tert-butyl-1-(4-hydroxyphenyl)-1H-pyrazol-5-yl)ureido)-2,3-dichlorophenoxy)pyridin-2-yl)-2-methoxyacetamide]
[1]
  IC50: 54.9 nM
p38 MAPKγ (MAPK12)
  IC50: 46.5 nM
[2]
  IC50: 0.3 nM
[3]
  EC50: 0.2 nM
[4]
  IC50: 1.6 nM
[5]
  IC50: 1.4 nM
[6]
  MTT Assay (Viability) 4 h d-U937, percentage loss of cell viability: −24.0%
  MTT Assay (Viability) 24 h d-U937, percentage loss of cell viability: 76.5%

## CNCC(=O)Nc1cc(Oc2ccc(NC(=O)Nc3cc(C(C)(C)C)nn3-c3ccc(OC)cc3)c(Cl)c2Cl)ccn1 [Example 42, N-(4-(4-(3-(3-tert-butyl-1-(4-methoxyphenyl)-1H-pyrazol-5-yl)ureido)-2,3-dichlorophenoxy)pyridin-2-yl)-2-(methylamino)acetamide]
[1]
  IC50: 14.6 nM
p38 MAPKγ (MAPK12)
  IC50: 28 nM
[2]
  IC50: 0.7 nM
[3]
  EC50: 1.3 nM
[4]
  IC50: 1.1 nM
[5]
  IC50: 3.1 nM
[6]
  MTT Assay (Viability) 4 h d-U937, percentage loss of cell viability: −4.4%
  MTT Assay (Viability) 24 h d-U937, percentage loss of cell viability: 67.9%
